Data reported in patent US20230151342A1, “ZINC FINGER DEGRADATION DOMAINS” (THE BROAD INSTITUTE, INC, priority 2020, published 2023).
Like-named read-outs stand apart in the source and are kept apart here. Where no end group is shown, it is not given here.

Experiments:
[1] = test system: Jurkat cells expressing individual zinc fingers in the protein degradation reporter; assay: Validation of individual zinc fingers in eGFP/mCherry protein degradation reporter (single reporter degradation experiments); assay type: cell-based
Method: FIG. 18A-18B Validation of individual hybrid zinc finger degrons. (FIG. 18A) Vehicle control-normalized eGFP/mCherry fluorescence ratios measured by flow cytometry for Jurkat cells expressing the indicated minimal 23 amino acid zinc finger degron constructs after treatment with pomalidomide or vehicle control. Experiments were performed in triplicate and error bars indicate standard deviation. […] (FIG. 18B) IC50 values for lenalidomide- or pomalidomide-induced degradation of endogenous and hybrid zinc fingers calculated from single reporter degradation experiments. (FIG. 18C) Jurkat cells expressing the 19BBz-d91.3 CAR were treated overnight with lenalidomide and the E1 inhibitor MLN7243 (500 nM), the Neddylation inhibitor […] (5000 nM), the lysosomal acidification inhibitor Chloroquine (50,000 nM), or the lysosomal acidification inhibitor Bafilomycin A (100 nM). CAR degradation requires ubiquitin ligase and Cullin-RING ligase function, and is insensitive to inhibition of autophagy.
FIG. 23. Validation of individual hybrid zinc finger degrons. Individual 23 amino acid zinc finger domains were cloned into the Cilantro 2 protein degradation reporter lentivector. Jurkat cells were transduced with each of these viruses. The GFP/mCherry ratio was calculated in the presence of various thalidomide analogs, indicative of drug-dependent degradation. Dark Gray=hybrid zinc fingers. Light Gray=endogenous zinc fingers. Dotted line=ZFP91-IKZF3.
Jurkat cells were created expressing each of the 6 hybrid and 8 associated parent ZFs and subjected them to a range of doses of lenalidomide, pomalidomide, avadomide, and iberdomide. […] The IC50 for degradation was lower for the 6 hybrid ZFs than their parent ZFs (FIG. 18B). […] One of these validated hybrids, ZFP91-IKZF3, was chosen with 1.6-6.0-times lower IC50 for degradation than IKZF3 across the tested thalidomide derivatives (FIG. 11G) hereafter termed “d91.3”, as a super degron tag for further CAR engineering, which was incorporated for evaluation of on and off-switch CARs.
Jurkat cells expressing a library of 440 C2H2 zinc fingers in a eGFP/mCherry protein degradation reporter vector were treated with DMSO or thalidomide analog drug for 16 hours. mCherry^+eGFP^low cell populations were isolated by FACS in triplicate, and the relative frequency of individual ZFs was quantified with next-generation sequencing. For validation, Jurkat cells were engineered to express individual zinc fingers in the protein degradation reporter; the eGFP:mCherry ratio was determined by flow cytometry after 16 hour incubation with varying concentrations of thalidomide analogs.

[2] = test system: K562-CD19 cells; assay: Jurkat CAR functional assay: CD69 expression after co-culture with K562-CD19 cells; assay type: cell-based; conditions: lenalidomide
Description: FIG. 12A-12D—ON-switch split CARs only function in the presence of lenalidomide. (FIG. 12A) Schematic of split CAR constructs. Each split CAR is composed of the indicated antigen-binding part A and the ITAM-containing part B. The lenalidomide-induced dimerization module is encoded by zinc fingers from IKZF3 or the engineered 913 zinc finger and a fragment of CRBN (CRBNΔ3). The intracellular domains of each split CAR part A is protected from CRL4^CRBN ubiquitination by K>R “K0” substitutions. The control second generation CAR FMC63-CD28-CD3z was also used. sCAR, split CAR. […] (FIG. 12C) Primary T cells were infected with lentiviruses encoding parts A and B of split CAR 913. Untransduced cells and cells expressing components A only, B only, and both A+B were purified by FACS. Cytotoxic activity of each sorted cell population was measured after overnight co-culture with NALM6 target cells and lenalidomide or vehicle control at the indicated effector:target ratios. The maximum plasma concentration for once daily 25 mg lenalidomide in multiple myeloma patients is indicated. (FIG. 12D) Scatterplots showing the production of cytokines after co-culture (1:1 CAR T:NALM6 ratio) in the presence of 1000 nM lenalidomide versus vehicle control. Experiments were performed in triplicate and error bars indicate standard deviation.
FIG. 24 Validation of lenalidomide-OFF-switch control of CAR T cell activation, as assessed by expression of the early activation marker CD69, in Jurkat T cells expressing various super-degron tagged chimeric antigen receptors. Regulation of CAR T cell activation with the indicated super-degrons, in comparison to the previously described degron d913. […]
Thalidomide analogs control degradable CAR T cell activation and effector functions in vitro and in vivo. […] Then cytokine production was analyzed in response to antigen stimulation.

[3] = test system: NALM6 target cells; assay: Cellular cytotoxicity assay of primary human CAR-T cells; assay type: cell-based; conditions: 1000 nM lenalidomide; primary split CAR T cells sorted for components A, B
Description: (§1) To evaluate whether effector functions of primary T cells could be gated by lenalidomide, primary sCAR 913 T cells were generated. As the two split CAR components are delivered by separate lentivectors, this gave the ability to use FACS to purify cells expressing neither, one, or both components.
(§2) Thalidomide analogs control degradable CAR T cell activation and effector functions in vitro and in vivo. To test whether degradable CAR T cell activation could be controlled with lenalidomide, 19BBz, 19BBz-dIKZF3, 19BBz-d91.3, and 19BBz-d91.3* Jurkat CAR T cell lines were co-cultured with K562 cells engineered to express the target antigen CD19 (K562-CD19) and 11 lenalidomide concentrations or vehicle control. […] To evaluate whether effector functions of degradable CAR T cells could be controlled with lenalidomide, primary human CAR T cells were generated and cytotoxicity assays performed comparing the conventional 19BBz CAR to the degradable 19BBz-d91.3 CAR in vitro. […] Then cytokine production was analyzed in response to antigen stimulation.
(§3) Primary human CAR-T effector cells were co-cultured with NALM6 target cells engineered to express click beetle green luciferase at the indicated ratios for 16 hours. Luciferase activity was measured with a Synergy Neo2 luminescence microplate reader (Biotek). Cell culture supernatant from these experiments was analyzed for soluble cytokines (Luminex).

[4] = test system: NALM6 target cells; assay: Cytokine production in CAR T:NALM6 co-culture supernatant (Luminex); assay type: cell-based; conditions: split CAR primary T cells, NALM6, 1000 nM lenalidomide
Description: as §1, §2, §3

[5] = biological target: CRBN (substrate receptor of the CRL4^CRBN E3 ubiquitin ligase) (UniProt Q96SW2 1-442); assay: cell-based or functional assay
Chain of CRBN (substrate receptor of the CRL4^CRBN E3 ubiquitin ligase) (Q96SW2 whole entry): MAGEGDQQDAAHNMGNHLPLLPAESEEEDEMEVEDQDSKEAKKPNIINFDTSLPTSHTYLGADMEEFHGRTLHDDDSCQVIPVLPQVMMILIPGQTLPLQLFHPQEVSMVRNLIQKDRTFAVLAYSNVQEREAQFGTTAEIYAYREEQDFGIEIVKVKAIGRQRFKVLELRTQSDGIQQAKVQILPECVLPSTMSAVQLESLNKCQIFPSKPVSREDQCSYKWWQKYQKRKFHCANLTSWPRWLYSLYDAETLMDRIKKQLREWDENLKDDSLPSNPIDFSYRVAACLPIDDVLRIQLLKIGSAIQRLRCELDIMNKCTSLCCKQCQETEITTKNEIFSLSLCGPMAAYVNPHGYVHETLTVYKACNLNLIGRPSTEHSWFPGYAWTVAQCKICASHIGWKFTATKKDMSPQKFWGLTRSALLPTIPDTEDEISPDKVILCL

[6] = CC-122-induced degradation, eGFP:mCherry ratio, 16 hour incubation, read-out: EC50 cc122
[7] = lenalidomide-induced degradation, eGFP:mCherry ratio, 16 hour incubation, read-out: EC50 len
[8] = pomalidomide-induced degradation, eGFP:mCherry ratio, 16 hour incubation, read-out: EC50 pom
[9] = lenalidomide, repeat experiment, read-out: EC50 len repeat

Row | Molecule | EC50 [1, 6] | EC50 [1, 7] | EC50 [1, 8] | also measured
1 | FQCNQCGASFTTKGSLIRHHRRH [HZnF_08] | 10.1 nM | 18.3 nM | 3.61 nM | 
2 | LQCEICGYQCRQRASLNWHMKKH [HZnF_12, reference compound] | 37 nM | 75.1 nM |  | 
3 | LQCEICGYQCRRLSTLIQHQKVH [HZnF_1, label misprinted] | 7.07 nM | 22.5 nM | 1.86 nM | 
4 | FACVICGRKFRNRGLMQKHLKNH [HZnF_11, reference compound] | 179 nM | 59.9 nM | 18.8 nM | 
5 | LQCEVCGFQCRQRASLKYHMTKH [HZnF_01, reference compound] | 73.6 nM | 78.6 nM | 7.41 nM | 
6 | LQCEICGYQCRQPKSLARHLRLH [HZnF_22] | 2.42 nM | 12.2 nM | 0.212 nM | EC50 [1, 9]: 6.59 nM
7 | YGCNECGKNFGRHSHLIEHLKRH [HZnF_09, reference compound] | 68.2 nM |  | 0.224 nM | 
8 | LQCEICGFTCRQKGNLLRHIKLH (FHCNQCGASFTQKGNLLRHIKLH) [HZnF_26] | 13.4 nM | 22.9 nM | 0.78 nM | EC50 [1, 9]: 29.4 nM
9 | FQCPICGLVIKRHSHLIEHLKRH [HZnF_21] | 2.46 nM | 11.2 nM | 0.311 nM | EC50 [1, 9]: 8.23 nM
10 | FVCPRCGRGFSQPKSLARHLRLH [HZnF_05, reference compound] | 2.93 nM | 48 nM | 8.55 nM | 
11 | LQCEICGFTCRRHSHLIEHLKRH [HZnF_17] | 73.4 nM | 149 nM | 5.29 nM | 
12 | LQCEVCGFQCRQPKSLARHLRLH [HZnF_24] | 5.67 nM | 10.1 nM | 0.46 nM | EC50 [1, 9]: 15 nM
13 | FQCNQCGASFTRHSHLIEHLKRH [HZnF_10] | 32.4 nM | 55.4 nM | 9.05 nM | 
14 | YQCKVCGRAFKRVSHLTVHYRIH [8HZnF__19, label misprinted, reference compound] | 125 nM | 248 nM | 16.9 nM | 
15 | LQCEICGFTCRWSSHYQYHLRQH [HZnF_04] | 101 nM | 324 nM | 14.1 nM | 
16 | YQCKVCGRAFKQKGNLLRHIKLH [HZnF_14] | 26 nM | 83.1 nM | 5.19 nM | 

Row | Molecule | EC50 [1, 6] | EC50 [1, 7] | EC50 [1, 8] | also measured
17 | FQCNQCGASFTRLSTLIQHQKVH [HZnF_06] | 56.1 nM | 433 nM | 21.9 nM | 
18 | YSCPVCGLRFKRKDRMSYHVRSH [HZnF_02, reference compound] | 176 nM | 100 nM |  | 
19 | FQCNQCGASFTQPKSLARHLRLH [HZnF_20] | 5.22 nM | 4.59 nM | 1.05 nM | EC50 [1, 9]: 6.09 nM
20 | LQCEICGFTCRQKASLNWHMKKH [HZnF_13, reference compound] | 33 nM | 57.8 nM | 5.47 nM | 
21 | LQCEICGYQCRRKDRMSYHVRSH [HZnF_25] | 0.693 nM | 6.64 nM |  | EC50 [1, 9]: 3.53 nM; pomalidomide-dependent degradation compared with parent ZF ([1]; pomalidomide): more efficient pomalidomide-dependent degradation than either parent ZF
22 | FQCNQCGASFTQKGNLLRHIKLH [HZnF_27, reference compound] | 33.5 nM | 21.9 nM | 3.1 nM | EC50 [1, 9]: 28.2 nM
23 | sCAR-91.3: lenalidomide ON-switch split CAR with dimerization domain from hybrid d913 zinc finger and CRBNΔ3 (FNVLMVHKRSHTGERPLQCEICGFTCRQKGNLLRHIKLHTGEKPFKCHLCNYACQRRDAL; cysteine pairing not given here; also: fragment of split CAR, other chain or arm left off) |  |  |  | fold lower EC50 than sCAR IKZF3 ([2]; Jurkat T cells exposed to CD19+ target cells): 7 fold; EC50 ([2]; split CAR-Jurkat cells co-cultured with K562-CD19, read-out: EC50 (percentage of CD69+ cells)): 29.3 nM; killing of NALM6 target cells [3]: restricted to T cells expressing both halves of sCAR 91.3 in the presence of 1000 nM lenalidomide; IL2 production in co-culture [4]: required the complete sCAR 91.3 and lenalidomide
24 | YRCRACGRACSRLSTLIQHQKVH [HZnF_03, reference compound] | 29.5 nM | 55.2 nM | 4.47 nM | 
25 | HECKLCGASFRTKGSLIRHHRRH [HZnF_07, reference compound] | 58.5 nM | 34.8 nM | 11.3 nM | 
26 | LQCEICGFTCRQPKSLARHLRLH [HZnF_23] | 0.983 nM | 6.45 nM | 0.146 nM | EC50 [1, 9]: 4.66 nM
27 | YQCKVCGRAFKRLSTLIQHQKVH [HZnF_15] | 35.2 nM | 71.9 nM | 5.12 nM | 
28 | FQCPICGLVIKRKSYWKRHMVIH [HZnF_16, reference compound] | 50.2 nM | 60.5 nM | 8.06 nM | 
29 | YSCPVCGLRFKRKDRMSYHVRSH (not fully specified; cysteine pairing not given here) [PATZ1_383_405-PATZ1_383_405_J1] |  |  |  | EC50 pom: pomalidomide-induced degradation, eGFP/mCherry reporter, Jurkat [5]: 32.4 nM
30 | LQCEICGYQCRRKDRMSYHVRSH (not fully specified; cysteine pairing not given here) [ZN653_556_578-PATZ1_383_405_J1] |  |  |  | EC50 pom: pomalidomide-induced degradation, eGFP/mCherry reporter, Jurkat [5]: 0.16 nM
31 | LQCEICGYQCRQRASLNWHMKKH (not fully specified; cysteine pairing not given here) [ZN653_556_578-ZN653_556_578_J1] |  |  |  | EC50 pom: pomalidomide-induced degradation, eGFP/mCherry reporter, Jurkat [5]: 5.17 nM
